# “Also recorded” adds a separate entry of the source. Where two headings read alike, the source gives them in different places.
# Key:
# [1] = target: T1, PAD4 (Homo sapiens, UniProt Q9UM07); assay: Standard PAD4 assay (citrulline formation from BAEE), IC50 studies; assay type: biochemical
# T1 construct: made in house
# Source text: Reactions were quenched by flash freezing in liquid N2. The amount of Cit produced was then quantified according to methods known in the art. […] Inhibition Studies.
# [2] = target: T1, PAD4; assay: ABPP-based inhibitor screen: competition with RFA for labelling of PAD4, gel fluorescence; assay type: binding; conditions: compound 2.5 mM, RFA 10 μM, PAD4 2 μM, 30 min at 37° C.
# Description: Very generally, potential inhibitor compounds are incubated individually with PAD4 in the presence of RFA for 30 min at 37° C.; at which point the reactions are quenched with SDS-PAGE loading dye and the mixtures are run on an SDS-PAGE gel. The amount of fluorescent PAD4 can then be quantified using a molecular imaging system. PAD4 inhibitors are readily identified by a decrease in fluorescence intensity.
# RFA (10 μM final) and a particular compound from the library (2.5 mM final) were pre-incubated in Screening Buffer (500 μM TCEP, 10 mM CaCl2, 100 mM HEPES 7.6, 50 mM NaCl) for 10 min at 37° C. PAD4 (2 μM final) was then added to this mixture and incubated for 30 min at 37° C. The reaction was quenched with 6×SDS-PAGE Dye, incubated at 95° C. for 10 min, and then loaded onto a 12% SDS-PAGE gel. After electrophoresis, the gel was placed in destaining buffer (10% glacial acetic acid, 45% methanol, 45% ddH2O) until the fluorescence was measured using a fluorescence based molecular imaging station (Kodak Image Station 2000MM; excitation at 535 nm, emission at 600 nm). The protein gel was then stained and destained to ensure equal protein loading. A sample without a potential inhibitor was used as a control.
# [3] = target: T1, PAD4; assay: Inhibition studies: kinetic analysis of PAD4 activity versus BAEE concentration; assay type: biochemical; conditions: product formation linear with respect to time
# [4] = target: T1, PAD4; assay: as above; assay type: biochemical; conditions: for kinetic mechanism of PAD4 inhibition: Lineweaver-Burk plots; for Ki: BAEE 0-20 mM, 0.2 μM PAD4
# Description: PAD4 activity was measured as a function of substrate concentration in the absence and presence of increasing concentrations of each inhibitor.
# Briefly, the compounds were incubated in Reaction Buffer containing various concentrations of BAEE (0-20 mM) for 10 minutes at 37° C. PAD4 (0.2 μM) was then added to initiate the reaction and allowed to proceed for 6 additional minutes. Reactions were then quenched by flash freezing in liquid N2 and the amount of Cit produced was quantified.
# [formula] using GraFit version 5.0.11.
# [5] = 1 mM BAEE, 0.2 μM PAD4, 15 min pre-incubation at 37° C.
# T1 sequence (Q9UM07 whole entry): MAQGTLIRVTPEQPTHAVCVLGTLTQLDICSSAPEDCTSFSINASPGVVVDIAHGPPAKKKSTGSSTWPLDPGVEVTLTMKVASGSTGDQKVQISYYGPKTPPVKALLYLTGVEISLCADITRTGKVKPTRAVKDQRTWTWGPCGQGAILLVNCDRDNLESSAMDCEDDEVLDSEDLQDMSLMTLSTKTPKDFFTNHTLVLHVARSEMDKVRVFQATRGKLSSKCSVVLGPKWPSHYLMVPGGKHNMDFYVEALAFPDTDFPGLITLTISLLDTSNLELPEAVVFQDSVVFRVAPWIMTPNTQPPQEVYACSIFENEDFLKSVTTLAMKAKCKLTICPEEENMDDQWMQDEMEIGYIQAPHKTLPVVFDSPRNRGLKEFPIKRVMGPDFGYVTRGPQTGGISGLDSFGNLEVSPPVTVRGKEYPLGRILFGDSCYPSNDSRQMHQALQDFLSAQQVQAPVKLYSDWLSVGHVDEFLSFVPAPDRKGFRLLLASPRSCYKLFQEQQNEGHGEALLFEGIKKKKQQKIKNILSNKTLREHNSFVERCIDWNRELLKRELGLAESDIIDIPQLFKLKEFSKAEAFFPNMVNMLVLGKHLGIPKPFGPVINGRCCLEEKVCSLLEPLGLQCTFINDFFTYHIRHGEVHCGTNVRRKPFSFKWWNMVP
"IC50 [1, 5] [µM]",decrease in fluorescence intensity of PAD4 [2],Compound,also measured
> 10000,little to no decrease,Azithromycin,–
–,strong decrease,[H]/N=C(/N)N[C@H]1[C@H](O)[C@@H](O)[C@H](O[C@@H]2O[C@@H](C)[C@](O)(C=O)[C@H]2O[C@@H]2O[C@@H](CO)[C@H](O)[C@@H](O)[C@@H]2NC)[C@@H](N/C(N)=N\[H])[C@@H]1O [Streptomycin],deimination of the compound by PAD4 (substrate) [1]: not deiminated; reversibility of PAD4 inhibition [3]: reversible; kinetic mechanism of PAD4 inhibition [4]: competitive inhibitor
–,Intermediate effects,CCCC1CC(C(=O)NC(C(C)Cl)C2OC(SC)C(O)C(O)C2O)N(C)C1 (stereo not drawn) [Clindamycin],–
> 10000,little to no decrease,Sulfamethox-azole,–
620,strong decrease,CN(C)c1ccc(O)c2c1C[C@H]1C[C@H]3[C@H](N(C)C)C(O)=C(C(N)=O)C(=O)[C@@]3(O)C(O)=C1C2=O [Minocycline],IC50 ([1]; standard assay): 620 µM; reversibility of PAD4 inhibition [3]: reversible; Ki ([4]; read-out: Kii): 630 ± 150 µM; Ki ([4]; read-out: Kis): 180 ± 60 µM; kinetic mechanism of PAD4 inhibition [4]: mixed type inhibitor; also recorded: mixed inhibitors
7500 ± 200,little to no decrease,COc1cc(Cc2cnc(N)nc2N)cc(OC)c1OC [Trimethoprim],–
100 ± 10,–,CN(C)[C@H]1C(O)=C(C(N)=O)C(=O)C2(O)C(O)=C3C(=O)c4c(O)cccc4C(C)(O)C3CC12 (stereo partly drawn) [Tetracycline],–
> 10000,little to no decrease,Nc1ccc(S(=O)(=O)Nc2ccccn2)cc1 [Sulfapyridine],–
2400 ± 800,Intermediate effects,Leflunomide,–
> 10000,Intermediate effects,CN(Cc1cnc2nc(N)nc(N)c2n1)c1ccc(C(=O)N[C@@H](CCC(=O)O)C(=O)O)cc1 [Methotrexate],–
> 10000,little to no decrease,Nc1ccc(O)c(C(=O)O)c1 [5-Amino-salicylic Acid],–
> 7500,–,Cn1cnc([N+](=O)[O-])c1Sc1ncnc2nc[nH]c12 [Azathioprine],–
–,–,CN(C)[C@H]1C(O)=C(C(N)=O)C(=O)C2(O)C(O)=C3C(=O)c4c(O)ccc(Cl)c4C(C)(O)C3CC12 (stereo partly drawn) [Chlortetracycline],reversibility of PAD4 inhibition [3]: reversible; kinetic mechanism of PAD4 inhibition [4]: mixed inhibition; also recorded: mixed inhibitors
